{
  "source": "patent US11634458B2",
  "about": "“Peptides and compositions for use in cosmetics and medicine” (LIPOTRUE, S.L., priority 2018, dated 2023)",
  "key": {"[1]": {"tested_on": "human muscle cells and motor neurons derived from hiPSC co-cultures", "test": "Contraction frequency in human muscle cell / hiPSC motor neuron co-cultures", "format": "cell-based", "settings": "0.5 mg/mL", "procedure": "The potential of said peptide Ac-SEQ ID NO: 8-NH2 to modulate the contraction frequency was evaluated in vitro using human muscle cells and motor neurons derived from hiPSC co-cultures, by means of live-imaging video of localized contractile muscle fibers recorded with an InCell 2200 automated microscope during 60 seconds, before and after treatment (after treatment, at each of the established timepoints).\nHuman muscle cells were cultivated at a density of 1×10^6 cells in T75 cm^2 flasks and then transferred to 96 well plates for differentiation. Motor neurons derived from hiPSC were transferred onto the 96 well plates containing the muscle cells in a differentiation medium. Co-cultures were maintained for 10 days in order to generate neurons junctions with muscle fibers. Spontaneous contractions were observed within 5 days.\nCo-cultures were then treated with control medium (basal), 1 μM α-bungarotoxin, 0.5 mg/mL of acetyl hexapeptide-8 as a benchmark reference and 0.05 or 0.1 mg/mL of peptide Ac-SEQ ID NO: 8-NH2. Movies of co-cultures were recorded during 60 seconds before treatment and, after 30 minutes of incubation, movies were recorded again during 60 seconds. The culture plate was incubated again for 1 h 30 min with compounds (2 h of total incubation), and movies of co-cultures were recorded again during 60 seconds. The culture plate was incubated again for a total of 24 h with compounds and at the end of the incubation movies were recorded again during 60 seconds. Finally, compounds were washed out and a last recording after 24 h from said washed out of the compounds was done to assess an eventual recovery of muscle contractions (recovery).\nFrequencies of contraction were calculated before and after each incubation. For each culture condition, 6 wells were analyzed."}, "[2]": {"tested_on": "permeabilized chromaffin cells", "settings": "Blanes-Mira et al. 2002; cited from earlier work"}, "SH-SY5Y cells": {"tested_on": "SH-SY5Y cells", "test": "Exocytosis levels and delay (fluorescent exocytosis reporter)", "format": "cell-based, human", "settings": "1 mg/mL, 1 hour, PMA + ionomycin, vs non-treated cells", "procedure": "The potential of said peptide Ac-SEQ ID NO: 8-NH2 to modulate the exocytosis of vesicles containing neurotransmitters from a neuroblastoma cell line was evaluated in vitro using SH-SY5Y cells, by fluorescence imaging using a Zeiss axiovert 200 inverted epifluorescence microscope with a 20× objective and a Xenon lamp.\nSH-SY5Y cells (Sigma, USA) were cultured in T25 flasks in supplemented medium (DMEM/F12, Gibco, USA). Above 90% confluence, cells were trypsinized with 1 ml of 0.5% (v/v) Trypsin-EDTA. Next, 5 mL of said supplemented medium was added and cell concentration determined. Cells were seeded onto polyLysine-coated 12 mm-treated coverslips in 24 well-plates at 15×10^4 cells/well in supplemented medium (Gibco, USA) and incubated at regular conditions (37° C., 5% CO2). After 24 h cell seeding, cells were transfected with exocytosis reporter using Lipofectamine™ 3000 (Invitrogen, USA) following manufacturer's instructions. Reporter construct contained fusion protein made up of intraluminal-specific proteins and a pH-sensitive fluorescent protein.\nFor exocytosis monitorization, after 48 h of protein expression, cells were incubated with 0.01 mg/mL of Ac-SEQ ID NO: 8-NH2 peptide or 1 mg/mL of the benchmark acetyl hexapeptide-8 for 1 h at 37° C. and 5% CO2. Non-treated cells were used as basal control. […] Fluorescence imaging was done for the last 10 min of the stimulation protocol. Fluorescence signal of exocytosis reporter was monitored employing 483-512 nm excitation-filter and 525-530 nm emission-filter. […]\nNon-treated cells were assayed in N=4 independent experiments with n=16 coverslips (483 cells measured), acetyl hexapeptide-8-treated cells in N=3 independent experiments with n=10 coverslips (328 cells measured) and Ac-SEQ ID NO: 8-NH2-treated cells in N=3 independent experiments with n=8 coverslips (240 cells measured). Cells were selected to individually monitor fluorescence intensity and time-course. Fluorescence peak evoked by ionomycin addition was used to quantify exocytosis by calculating the Area under the curve (AUC) using GraphPad software. Two parameters were defined and analyzed: • Exocytosis levels: For individual cells, total peak area was obtained from AUC analysis and was normalized by the baseline that was defined as fluorescence intensity 3-cycles before lonomycin injection. • Exocytosis delay: For individual cells, response time (min) was obtained from AUC analysis as time frame between lonomycin injection (Y) and initiation of peak (firstX).\nFluorescence values were further normalized as percentage change to non-treated cells on each experiment as: (exocytosis level of treated cells/exocytosis levels non-treated cells)×100 and (response time of treated cells/response time of non-treated cells)×100. […]"}},
  "data": [
    {"substance": "acetyl hexapeptide-8 [reference compound]", "values": [
      {"measurement": "muscle contraction frequency with regard to the basal non-treated cells", "setting": "[1]; after 30 min", "result": 18, "unit": "%"},
      {"measurement": "muscle contraction frequency with regard to the basal non-treated cells", "setting": "[1]; after 24 h", "result": 45, "unit": "%"},
      {"measurement": "muscle contraction frequency with regard to the basal non-treated cells", "setting": "[1]; after washout", "result": 100, "unit": "%"},
      {"measurement": "inhibition of exocytosis, maximum values", "setting": "[2]", "result": 40, "unit": "%"},
      {"measurement": "change of exocytosis level", "setting": "SH-SY5Y cells", "result": 7, "unit": "%"},
      {"measurement": "exocytosis response time delay", "setting": "SH-SY5Y cells", "result": 67, "unit": "%"}
    ]}
  ]
}
